Marks after values point to notes of the source that are not given here.

In experiment [1] the test system is lipid ROS levels in Erastin-induced nerve cells. The experiment is described as follows: Lipid ROS levels (C11-BODIPY probe) in Erastin-induced nerve cells (Example 8). The format is cell-based, rat. The conditions noted are these: Erastin 50 μM. On the procedure:
Experimental method: Primary neuron cells were incubated in a medium containing Erastin (final concentration of 50 μM) for 24 hours, and then incubated in a medium containing different concentrations of the test drug and Erastin (final concentration of 50 μM) for another 24 hours. After incubation, Real time PCR was used to detect mRNA expression of GPX4 in each group of cells, CCK8 assay was used to detect cell viability in each group of cells, C11-BODIPY probe method was used to detect intracellular lipid ROS levels in each group of cells, and PGSK probe method was used to detect iron content in cells.
The experimental data were expressed in means±SD, and statistical differences between groups were determined using one-way ANOVA and Tukey's test, with p-values less than 0.05 considered significant.
After incubation, the C11-BODIPY probe method was used to detect the lipid ROS levels in each group of cells. The results were presented as Mean±SD. Compared with the control group, ***p<0.0001; compared with the model group, #p<0.05, ##p<0.01.

The test system of experiment [2] is vascular inflammation in high-glucose and high-fat zebrafish. The experiment is described as follows: Regressive effect on vascular inflammation in high-glucose and high-fat zebrafish (Example 9). The format is in vivo. The protocol: Experimental method: 360 tails of 5 dpf macrophage fluorescent zebrafish were randomly selected and placed in beakers with 30 tails in each beaker, compound (1), compound (3), and compound (5) were given intravenously, and the positive control group was given atorvastatin calcium by dissolving it in water at a concentration of 30 μg/mL, while the normal control group (fish farming water-treated zebrafish) and the model control group were set up, and the volume of each beaker (experimental group) was 25 mL. Except for the normal control group, all other groups were given high-lipids and high-sucrose feed by dissolving it in water. Compound (1), compound (3) and compound (5) group were co-treated with high-lipids and high-sucrose feed for 30 h. The treatment was carried out up to 9 dpf, and 10 zebrafish were randomly selected from each experimental group to collect the intensity of the macrophage fluorescence within the tail vein and around the tail vein of the zebrafish under fluorescence microscope, and the results of the statistical analysis were used to evaluate the regressive effect of compound (1), compound (3), compound (5) on zebrafish vascular inflammation in the high sugar and high fat model.

Experiment [3] deals with cerebral ischemic injury in rats caused by autologous thrombus and thrombin. Briefly: Ischemic brain injury in rats caused by autologous thrombus and thrombin (Example 6). It is filed as in vivo, rat. On the procedure:
The drug was administered once by slow tail vein injection (1 ml per minute) 2 h after modeling, and the decrease in blood flow was monitored after the injection of thrombin, and 120 min after the administration of the drug. Neurobehavioral scoring was performed to determine the neurological function of rats after 24 h. The cerebral infarction rate and cerebral water content of rats were determined using 2,3,5-triphenyltetrazolium chloride (TTC) staining method, and the pathological damage of the brain of rats administered with drug 2 h after cerebral ischemia was observed by hematoxylin-eosin (HE) staining.

As to `CC(=O)N[C@H](CSCC1OC2OC3C(CSC[C@@H](NC(C)=O)C(=O)[O-])OC(OC4C(CSC[C@@H](NC(C)=O)C(=O)[O-])OC(OC5C(CSC[C@@H](NC(C)=O)C(=O)[O-])OC(OC6C(CSC[C@@H](NC(C)=O)C(=O)[O-])OC(OC7C(CSC[C@@H](NC(C)=O)C(=O)[O-])OC(OC8C(CSC[C@@H](NC(C)=O)C(=O)[O-])OC(OC9C(CSC[C@@H](NC(C)=O)C(=O)[O-])OC(OC1C(O)C2O)C(O)C9O)C(O)C8O)C(O)C7O)C(O)C6O)C(O)C5O)C(O)C4O)C(O)C3O)C(=O)[O-].[Na+].[Na+].[Na+].[Na+].[Na+].[Na+].[Na+].[Na+]` (stereo partly drawn) [Compound (1)], the “Lipid ROS levels (%)” value was 150.18 ± 6.05^ % in experiment [1] (1 μM, control = 100, Mean±SD); 142.58 ± 3.01^ % in experiment [1] (2.5 μM); 137.9 ± 6.72% in experiment [1] (5 μM); 132.33 ± 6.57^## % in experiment [1] (10 μM); 121.82 ± 5.9^## % in experiment [1] (20 μM); 114.13 ± 8.82^## % in experiment [1] (40 μM). The “Anti-inflammatory effect (%)” value in experiment [2] (222 ng/tail intravenous) is 27*** %; in experiment [2] (667 ng/tail intravenous) it was 37*** %; in experiment [2] (2000 ng/tail intravenous) it was 41*** %. Also, the “Fluorescence intensity of perivascular macrophage (pixels, Mean ± SE)” value in experiment [2] (222 ng/tail intravenous) is recorded as 134308 ± 6117 pixels; in experiment [2] (667 ng/tail intravenous), 116848 ± 5036 pixels; in experiment [2] (2000 ng/tail intravenous) it was 108154 ± 4723 pixels. In addition, the “Cerebral blood flow: Percentage decrease after injection of thrombin (%)” value in experiment [3] (22.5 mg/kg group, value before administration, mean ± SD, n = 10) is 43.67 ± 7.17%. In experiment [3] (22.5 mg/kg i.v.), the “Cerebral infarction rate (%)” value is recorded as 13.91 ± 10.78 %. For the same compound, the “Cerebral water content (%)” value in experiment [3] (22.5 mg/kg i.v.) came out at 79.93 ± 1.98 %. In addition, the “Cerebral blood flow: Percentage decrease two hours after administration (%)” value in experiment [3] (22.5 mg/kg i.v. once 2 h after modeling) is given as 27.14 ± 6.38 %. The Pathological damage score in experiment [3] (22.5 mg/kg i.v., HE staining, mean ± SD, n = 10) worked out at 1.90 ± 1.10. Besides, in experiment [3] (22.5 mg/kg i.v., after 24 h), the Behavioral score stood at 1.60 ± 0.70.

Values taken from patent US20250064886A1, “CARDIOVASCULAR AND CEREBROVASCULAR DRUG AND USE THEREOF” (HANGZHOU ADAMERCK PHARMLABS INC., priority 2021, published 2025).
